Test results reported in BigSolDB 2.1.

Cn1nnc2c(C(N)=O)ncn2c1=O
solubility (mole fraction)
Conditions	273.15 K	278.15 K	283.15 K	288.15 K	293.15 K	298.15 K	303.15 K	308.15 K	313.15 K	318.15 K
in ethanol	6.58e-05	7.89e-05	9.48e-05	0.000115	0.000136	0.00016	0.000188	0.000225	0.000269	0.000313
in ethyl acetate	8.03e-05	9.96e-05	0.00012	0.000144	0.000173	0.000206	0.000237	0.000277	0.000319	0.000371
in isopropanol	2.2e-05	2.69e-05	3.4e-05	4.26e-05	5.17e-05	6.38e-05	7.8e-05	9.41e-05	0.000116	0.000143
in methanol	0.000174	0.000217	0.00027	0.000327	0.00039	0.000459	0.000536	0.000621	0.00072	0.000838
in n-propanol	4.28e-05	5.53e-05	6.99e-05	8.65e-05	0.000107	0.00013	0.000157	0.000188	0.000226	0.000271
